Four compounds from publication PMC9873984, “Membrane cholesterol regulates inhibition and substrate transport by the glycine transporter, GlyT2” (Life Science Alliance, 2023) can be followed below.

SMILES strings stand for the structures.

The target of assay [1] is T1, WT GlyT2 (Homo sapiens, UniProt Q9Y345).
T1 sequence (Q9Y345 1-797): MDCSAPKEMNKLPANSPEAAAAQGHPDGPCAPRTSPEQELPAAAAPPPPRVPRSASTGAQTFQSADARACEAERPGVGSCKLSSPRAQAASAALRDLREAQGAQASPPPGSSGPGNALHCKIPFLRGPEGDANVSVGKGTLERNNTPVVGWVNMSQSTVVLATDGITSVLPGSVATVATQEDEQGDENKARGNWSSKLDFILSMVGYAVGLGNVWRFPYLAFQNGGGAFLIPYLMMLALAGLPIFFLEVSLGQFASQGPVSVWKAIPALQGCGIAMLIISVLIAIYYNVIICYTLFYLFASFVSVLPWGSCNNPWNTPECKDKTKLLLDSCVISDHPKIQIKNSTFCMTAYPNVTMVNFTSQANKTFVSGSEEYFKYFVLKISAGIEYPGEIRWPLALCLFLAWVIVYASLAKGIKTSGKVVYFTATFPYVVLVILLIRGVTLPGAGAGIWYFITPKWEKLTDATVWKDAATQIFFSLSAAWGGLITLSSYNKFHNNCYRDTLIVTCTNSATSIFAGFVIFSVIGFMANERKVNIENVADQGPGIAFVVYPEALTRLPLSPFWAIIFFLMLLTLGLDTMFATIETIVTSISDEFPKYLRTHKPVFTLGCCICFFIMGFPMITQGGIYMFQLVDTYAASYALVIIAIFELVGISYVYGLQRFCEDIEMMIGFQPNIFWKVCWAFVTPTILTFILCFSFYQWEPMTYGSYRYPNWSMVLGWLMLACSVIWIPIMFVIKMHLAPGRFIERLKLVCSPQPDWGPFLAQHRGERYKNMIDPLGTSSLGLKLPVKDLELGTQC
Briefly: Inhibitor washout time course (reversibility), control and MβCD-treated oocytes. Format: cell-based. More on the design: expressed in transfected cells; host or cells: Xenopus laevis oocytes injected with in vitro transcribed RNA (pOTV vector). The method, then:
(§1) Individual oocytes were incubated at 32°C for 30 min in 15 mM MβCD or γCD, suspended in frog Ringer’s solution.
Reversibility of GlyT2 inhibitors was determined by applying an EC50 concentration of glycine followed by co-application of the inhibitor at an IC50 concentration once a stable current had been achieved. Inhibitors were applied for 4 min as this was sufficient time to produce substantial inhibition for each compound and allowed for their direct comparison. At the conclusion of 4 min (time 0), ND96 buffer was perfused through the recording chamber to wash the oocyte. […] Transport currents were normalized to glycine currents in the absence of inhibitor and converted to % recovery values via Y=It−It=0/Imax−It=0, where Y is % recovery, I is current in nA, Imax is the maximal current produced by the glycine EC50, and t is time in minutes. Washout kinetics were then determined by fitting % recovery values to the first-order rate equation: Y=(Y0−Plateau).e^(−Kt)+Plateau, where Y is the % recovery, Y0 is the point, which crosses the Y-axis (constrained to 0) and increases to the plateau (constrained to between 0 and 100), K is the rate constant (1/t), and t is time in minutes. […] Because of the slowly […] nature of the inhibitors, washout time courses involving cyclodextrin treatment could not be performed on the same cell. […] As these experiments could not occur on the same cell, differences in half-life and maximal recovery were analysed via an unpaired two-tailed t test.

The target in assay [2] is T1, WT GlyT2. As to the kind of experiment: Inhibitor concentration–responses on glycine transport currents, two-electrode voltage clamp (control and MβCD-treated oocytes). Format: cell-based. Also noted: expressed in transfected cells; host or cells: Xenopus laevis oocytes injected with in vitro transcribed RNA (pOTV vector). To be noted: for Reduction of potency after cholesterol depletion: MβCD-treated vs control oocytes. The method, then:
as §1
Because of the slowly reversible nature of the compounds tested, inhibitor concentration–responses were performed cumulatively. An EC50 concentration of glycine was applied until a stable transport current was reached. EC50 concentrations of glycine were used to produce reliable currents for each transporter, and as the inhibitors are non-competitive, application of varying glycine concentrations is unlikely to affect their activity. Increasing concentrations of inhibitors were co-applied with glycine with each concentration producing a distinct plateau before the subsequent concentration was applied. Inhibitor concentration–responses were limited to a maximum concentration of 3 µM to mitigate the risk of changes to the free drug concentration because of micelle formation. Currents after the plateau of each inhibitor concentration were normalized to the current produced by application of glycine alone and fit using the method of least squares: Y=Bottom+(Top−Bottom)/(1+10^[X−LogIC50]), where X is log [inhibitor], Y is current normalized to glycine in the absence of inhibitor, and Top and Bottom are the maximal and minimal plateaus, respectively. The method of least squares was constrained to have the bottom value >0 and the hill slope as −1, enabling the calculation of IC50 values and the extent of inhibition produced by the maximal concentration applied.
IC50 values are presented as the mean and 95% confidence interval, whereas inhibition values are presented as the mean ± SEM. Data sets are n ≥ 5 from two batches of oocytes.
As the inhibitors assayed here are slowly reversible, inhibitor concentration–responses were unable to be performed on the same cell after treatment with MβCD. Thus, GlyT2 expression was tested by applying a maximal glycine concentration (300 µM) before treatment with MβCD to deplete membrane cholesterol. After MβCD treatment, oocytes were returned to the electrophysiology set-up and washed for 10 min in recording buffer to remove cyclodextrins. […] After successful depletion, inhibitor concentration–responses were performed as described above (see “Inhibitor concentration–response—mutagenesis” in the Materials and Methods section).

Where [3] appears, read: MβCD-treated oocytes (15 mM, 30 min, 32°C).
[4] abbreviates: MβCD-treated oocytes (15 mM, 30 min, 32 °C; cholesterol depleted).
Setting [5] is: WT GlyT2 in Xenopus laevis oocytes, glycine EC50 co-applied, Table S10.
The mark [6] stands for this setting: WT, washout after 4 min IC50 concentration of inhibitor, Table S11.
[7] abbreviates: MβCD-treated oocytes (15 mM, 30 min, 32 °C), 3 µM.
[8] abbreviates: WT GlyT2 in Xenopus laevis oocytes, 3 μM, Table S10.

Take `CCCCCCCC/C=C\CCCCCCCC(=O)O[C@H](CC(=O)[O-])C[N+](C)(C)C` [Oleoyl-L-Carnitine, oleoyl-L-carnitine]: the “Recovery at 30 min” value on WT GlyT2 [1] (Control oocytes, Table S8) is on record as 45.7%; on WT GlyT2 [1] (setting [3]) it was 92.4%. For the same compound, the “Inhibition at 1 µM (column head 3 μM, footnote b)” value is given as 60.5 ± 5.3^b % at WT GlyT2 [2] (MβCD-treated oocytes (15 mM, 30 min, 32 °C)) and 55.5 ± 5.2^b % on WT GlyT2 [2] (WT GlyT2 in Xenopus laevis oocytes, Table S10). Moreover, the IC50 is 800 nM at WT GlyT2 [2] (setting [4]) and 520 nM on WT GlyT2 [2] (setting [5]). In addition, on WT GlyT2 [2], the “Reduction of potency after cholesterol depletion” value (“Reduction of potency” for short) was “does not alter the potency”.
As to `CCCCCCCC/C=C\CCCCCCCC(=O)N[C@@H](CC(C)C)C(=O)O` [Oleoyl-L-Leucine, oleoyl-L-leucine], the “Half-life (transport current recovery)” value on WT GlyT2 [1] (Control oocytes, Table S8) was 2.3 ± 0.5 min; on WT GlyT2 [1] (setting [3]), 3.1 ± 0.3 min; on WT GlyT2 [1] (MβCD-treated oocytes (15 mM, 30 min, 32°C), listed as OLLeu), “unchanged”; on WT GlyT2 [1] (setting [6]), 2.3 ± 0.5 min. Also, the “Recovery at 30 min” value on WT GlyT2 [1] (setting [3]) is recorded as 92.2 ± 3.7 %. Moreover, the “Recovery at 30 Min” value on WT GlyT2 [1] (setting [6]) was 51.1 ± 2.7%. In addition, the entries for the “Inhibition at 3 μM” value at WT GlyT2 [2] (setting [7]) and at WT GlyT2 [2] (setting [8]) were 64.9 ± 3.8% and 69.4 ± 3.8%, respectively. Moreover, the IC50 on WT GlyT2 [2] (setting [4]) is 619 nM; against WT GlyT2 [2] (setting [5]), 262 nM. In addition, the “Reduction of potency” value at WT GlyT2 [2] came out at 2.4 fold.
In the case of `CCCCCCCC/C=C\CCCCCCCC(=O)N[C@@H](CCCCN)C(=O)O` [Oleoyl-L-Lysine, oleoyl-L-lysine], the “Recovery at 30 min” value on WT GlyT2 [1] (setting [3]) is reported as 63.0 ± 4.1%; at WT GlyT2 [1] (MβCD-treated oocytes (15 mM, 30 min, 32°C), listed as OLLys) it was “no difference was observed”. Besides, the “Recovery at 30 Min” value on WT GlyT2 [1] (setting [6]) is given as 55.1 ± 1.5%. The “Inhibition at 3 μM” value on WT GlyT2 [2] (Control oocytes, 3 µM, Table S7) amounted to 93.6 ± 1.9%; at WT GlyT2 [2] (setting [7]), 91.5 ± 1.5%; at WT GlyT2 [2] (setting [8]), 86.6 ± 1.9%. Also, the IC50 on WT GlyT2 [2] (setting [4]) came to 269 nM; against WT GlyT2 [2] (setting [5]), 215 nM; on WT GlyT2 [2] (WT GlyT2 in Xenopus laevis oocytes, glycine EC50 co-applied, Table S10, listed as OLLys), 220 nM. Further, the “Reduction of potency” value at WT GlyT2 [2] worked out at 2.3 fold.
On to `CCCCCCCC/C=C\CCCCCCCC(=O)N[C@@H](Cc1c[nH]c2ccccc12)C(=O)O` [Oleoyl-L-Tryptophan, oleoyl-L-tryptophan], for which the “Half-life (transport current recovery)” value was “No Recovery” at WT GlyT2 [1] (Control oocytes, Table S8); “No Recovery” on WT GlyT2 [1] (setting [3]); “No Recovery” on WT GlyT2 [1] (setting [6]). Moreover, the “Recovery at 30 min” value is listed as “No Recovery” at WT GlyT2 [1] (Control oocytes, Table S8) and “No Recovery” at WT GlyT2 [1] (setting [3]). The “Recovery at 30 Min” value at WT GlyT2 [1] (setting [6]) is “No Recovery”. Also, the “Inhibition at 3 μM” value at WT GlyT2 [2] (setting [7]) is reported as 78 ± 4%; at WT GlyT2 [2] (setting [8]) it was 76.2 ± 2.3%. Moreover, the results for the IC50 against WT GlyT2 [2] (setting [4]) and against WT GlyT2 [2] (setting [5]) were 130 nM and 103 nM, respectively. At WT GlyT2 [2], the “Reduction of potency” value was “does not alter the potency”.
